Results published in patent US7300932B2, “Pyrrolo[1,2-b]pyridazine derivatives” (Japan Tobacco Inc., priority 2003, dated 2007).
pIC50: −log10 of the molar value.

Biological target: T1, human DGAT1 (Homo sapiens, UniProt O75907)
T1 construct: made in house; host or cells: insect cells (e.g., sf9, sf21, or High Five), Bac-to-Bac baculovirus; total cell membranes
T1 sequence (O75907 1-488): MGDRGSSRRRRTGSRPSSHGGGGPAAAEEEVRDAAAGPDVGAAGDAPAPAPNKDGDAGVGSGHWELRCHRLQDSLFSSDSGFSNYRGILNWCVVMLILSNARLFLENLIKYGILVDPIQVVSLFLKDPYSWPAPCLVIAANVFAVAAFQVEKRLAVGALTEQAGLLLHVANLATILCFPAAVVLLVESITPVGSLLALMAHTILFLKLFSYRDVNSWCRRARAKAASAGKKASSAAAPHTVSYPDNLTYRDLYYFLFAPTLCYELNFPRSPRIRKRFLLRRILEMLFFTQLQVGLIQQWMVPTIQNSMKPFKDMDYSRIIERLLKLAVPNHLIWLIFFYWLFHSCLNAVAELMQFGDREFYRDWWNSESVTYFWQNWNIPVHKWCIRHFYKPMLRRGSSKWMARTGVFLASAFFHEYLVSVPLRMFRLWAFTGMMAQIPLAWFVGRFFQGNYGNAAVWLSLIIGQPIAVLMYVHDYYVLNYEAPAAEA
Experiment: DGAT Scintillation Proximity Assay (SPA) with membranes of insect cells expressing human flagtag DGAT1
Format: biochemical
Settings: DGAT inhibition
Method: In such an assay human DGAT1 is cloned from a human liver cDNA library. PCR is used to add a restriction site and flag epitope at the most 5′ end and a restriction site at the 3′ end of the sequence. Thereafter, human flagtag (FT) DGAT1 baculovirus may be generated using a Bac-to-Bac Baculovirus Expression System® (Invitrogen). Insect cells (e.g., sf9, sf21, or High Five) are infected for 24 to 72 h and collected by centrifugation. Cell pellets are resuspended in homogenization buffer and lysed using a homogenization device, such as a Microfluidizer. Total cell membranes are collected by ultracentrifugation at 45,000 rpm for 1 h.
A small aliquot (0.2 μg/well) of membrane is incubated with 10 μM compound or mercuric chloride (as positive control for inhibition) in the presence of enzyme substrate, dioleoyl glycerol (200 μM) in 384 well plates, final volume 50 μL per well. […] The reaction is stopped by adding Wheat Germ Agglutinin (WGA) SPA beads (0.2 mg) in mercuric chloride. Cell membranes are allowed to couple to the beads overnight. The signal can be measured using, for example, a Chemiluminescence Image Plate Reader (CLIPR) or TopCount device.

Row | Compound | pIC50
1 | CCOC(=O)c1c(C(=O)OCC)c2c(-c3ccccc3)cc(N3CCOCC3)nn2c1C1CC1 [Example 8, 7-Cyclopropyl-2-morpholin-4-yl-4-phenyl-pyrrolo[1,2-b]pyridazine-5,6-dicarboxylic acid diethyl ester] | < 6.30
2 | CCCc1c(-c2nnc(C)o2)c(C(=O)OCC)c2c(-c3ccccc3)cc(N3CCOCC3)nn12 [Example 78, 6-(5-Methyl-[1,3,4]oxadiazol-2-yl)-2-morpholin-4-yl-4-phenyl-7-propyl-pyrrolo[1,2-b]pyridazine-5-carboxylic acid ethyl ester] | < 6.30
3 | CCCc1c(C(=O)OCC)c(C(=O)OCC)c2c(-c3ccccc3)cc(N3CCC3)nn12 [Example 95, 2-Azetidin-1-yl-4-phenyl-7-propyl-pyrrolo[1,2-b]pyridazine-5,6-dicarboxylic acid diethyl ester] | < 6.30

Other lines, results leading:

Row | pIC50 | Compound
4 | > 6.30 | CCCc1c(C(=O)OCC)c(C(=O)OCC)c2c(-c3ccccc3)cc(N3CCCC3)nn12 [Example 96, 4-Phenyl-7-propyl-2-pyrrolidin-1-yl-pyrrolo[1,2-b]pyridazine-5,6-dicarboxylic acid diethyl ester]
5 | < 6.30 | CCOC(=O)c1c(C(=O)OCC)c2c(-c3ccccc3)cc(N3CCOCC3)nn2c1C [Example 24, 7-Methyl-2-morpholin-4-yl-4-phenyl-pyrrolo[1,2-b]pyridazine-5,6-dicarboxylic acid diethyl ester]
6 | > 6.30 | CCCc1c(C(=O)OCC)c(C(=O)OCC)c2c(C3CCCCC3)cc(N3CCOCC3)nn12 [Example 90, 4-Cyclohexyl-2-morpholin-4-yl-7-propyl-pyrrolo[1,2-b]pyridazine-5,6-dicarboxylic acid diethyl ester]
7 | < 6.30 | CCCc1c(-c2ncc(-c3ccccc3)o2)c(C(=O)OCC)c2c(-c3ccccc3)cc(N3CCOCC3)nn12 [Example 80, 2-Morpholin-4-yl-4-phenyl-6-(5-phenyl-oxazol-2-yl)-7-propyl-pyrrolo[1,2-b]pyridazine-5-carboxylic acid ethyl ester]
